Columns and labels:
[1] = system: rat conjunctival goblet cells; assay: Goblet cell proliferation, WST tetrazolium assay (Example 3A, Fluorescence Assay); assay type: cell-based; conditions: for goblet cell proliferation, Ave. fold / goblet cell proliferation, fold of basal, rat101 / goblet cell proliferation, fold of basal, rat102 / goblet cell proliferation, fold of basal, rat103: 24 hrs; for goblet cell proliferation, Ave. fold: average of 3 rats; for goblet cell proliferation, fold of basal, rat101: cells from rat101; for goblet cell proliferation, fold of basal, rat102: cells from rat102; for goblet cell proliferation, fold of basal, rat103: cells from rat103; for stimulation of goblet cell proliferation compared to control (no additions): 10^−7 M
Description: Conjunctival tissue from the fomical area and the nictitating membranes were removed from male Sprague Dawley rats. Tissue pieces were placed in explant culture in RPMI supplemented with fetal bovine serum (FBS). […] Non-goblet cells, predominantly fibroblasts, were removed by scraping. Goblet cells were allowed to grow and proliferate for several days. Cells were removed from the tissue culture vessel by trypsin treatment. The number of cells was counted using a coulter counter. For measurement of proliferation 200 cells were seeded onto 96 well plates. Cells were allowed to attach and proliferate until a sparsely confluent level was obtained, about two days.
Goblet cells from passage 1 or 2 cultured as above were used for measurement of proliferation. Cells were plated at 200 cells/well. Cells were serum-starved for 24 or 48 hrs. Test compounds in varying concentrations were added to each cell well for 24 hrs. The positive control for proliferation was the addition of 10% FBS, a known maximal stimulator of proliferation. Proliferation was terminated by the removal of medium.

[2] = system: rat conjunctival goblet cells; assay: Goblet cell proliferation, Ki-67/UEA-1/DAPi immunofluorescence assay (Example 3B); assay type: cell-based; conditions: 24 hours; concentration most effective in the fluorescence assay (FBS 10%)
Description: Conjunctival tissue from the fomical area and the nictitating membranes were removed from male Sprague Dawley rats. Tissue pieces were placed in explant culture in RPMI supplemented with fetal bovine serum (FBS). Over several days cells grew out of the explant and proliferated. Non-goblet cells, predominantly fibroblasts, were removed by scraping. Goblet cells were allowed to grow and proliferate for several days. Cells were removed from the tissue culture vessel by trypsin treatment. The number of cells was counted using a coulter counter. For measurement of proliferation 200 cells were seeded onto 96 well plates. […]
B. Immunofluorescence Assay This assay was used to confirm the results from the fluorescence assay. […]
Ki-67 was detected with a rhodamine secondary antibody using a filter that measures excitation wavelengths from 530-560 nm. UEA-1, which stains goblet cells, was directly conjugated to fluorescein isothyocyanate (FITC) and was detected using a filter that measures excitation wavelengths from 450-490 nm. DAPi, which stains the nuclei of all cells, was detected using a filter that measures excitation wavelengths from 400-418 nm. The percentage of proliferating goblet cells is determined by dividing the number of Ki-67 positive goblet cells by the total number of cells and multiplying by 100. […]

## Galectin-3: recombinant galectin with single CRD domain and extended N-terminal region, obtained from Cell Services, Massachusetts, 98% pure
[1]; 0.1 μg/ml to 5 μg/ml
  dose dependence of effect on goblet cell proliferation: appeared to be dose dependent
  effect on goblet cell proliferation: both galectins stimulated goblet cell proliferation
[1]; 0.1 ug/ml
  goblet cell proliferation, Ave. fold: 1.0 fold
  goblet cell proliferation, fold of basal, rat101: 1.0 fold
  goblet cell proliferation, fold of basal, rat102: 0.9 fold
  goblet cell proliferation, fold of basal, rat103: 1.0 fold
[1]; 0.5 ug/ml
  goblet cell proliferation, Ave. fold: 1.1 fold
  goblet cell proliferation, fold of basal, rat101: 1.3 fold
  goblet cell proliferation, fold of basal, rat102: 1.0 fold
  goblet cell proliferation, fold of basal, rat103: 1.0 fold
[1]; 1.0 ug/ml
  goblet cell proliferation, Ave. fold: 1.2 fold
  goblet cell proliferation, fold of basal, rat101: 1.3 fold
  goblet cell proliferation, fold of basal, rat102: 1.1 fold
  goblet cell proliferation, fold of basal, rat103: 1.0 fold
[1]; 2.0 ug/ml
  goblet cell proliferation, Ave. fold: 1.3 fold
  goblet cell proliferation, fold of basal, rat101: 1.5 fold
  goblet cell proliferation, fold of basal, rat102: 1.3 fold
  goblet cell proliferation, fold of basal, rat103: 1.1 fold
[1]; 5.0 ug/ml
  goblet cell proliferation, Ave. fold: 1.4 fold
  goblet cell proliferation, fold of basal, rat101: 1.8 fold
  goblet cell proliferation, fold of basal, rat102: 1.2 fold
  goblet cell proliferation, fold of basal, rat103: 1.1 fold

## CC(C)Cn1c(=O)c2[nH]cnc2n(C)c1=O [1-isobutyl-3methylxanthine, reference compound]
[1]; 10^−6 to 10^−3 M
  effect on goblet cell proliferation: did not increase proliferation at the concentrations tested

## Heregulin
[1]
  stimulation of goblet cell proliferation compared to control (no additions): more than 2 fold

## HGF: hepatocyte growth factor
[1]; 15-40 ng/ml
  effect on goblet cell proliferation: Neither hepatocyte growth factor (HGF, 15-40 ng/ml) nor keratinocyte growth factor (KGF, 10-30 ng/ml), at any of the concentrations used, stimulated cell proliferation

## CCCCCCCCCCCCCC(=O)O[C@@H]1[C@@H](C)[C@@]2(O)[C@@H](C=C(CO)C[C@]3(O)C(=O)C(C)=C[C@@H]23)[C@@H]2C(C)(C)[C@]12OC(C)=O [PMA, Phorbol myristic acid, reference compound]
[1]; 10^−8M, solubilized in less than 1% DMSO, compared to no additions
  effect on goblet cell proliferation: did not stimulate cell proliferation

## Galectin-1: recombinant galectin, mono-CRD carbohydrate-binding protein, obtained from Cell Services, Massachusetts, 98% pure
[1]; 0.1 μg/ml to 5 μg/ml
  dose dependence of effect on goblet cell proliferation: appeared to be dose dependent
  effect on goblet cell proliferation: both galectins stimulated goblet cell proliferation
[1]; 0.1 ug/ml
  goblet cell proliferation, Ave. fold: 1.0 fold
  goblet cell proliferation, fold of basal, rat101: 1.1 fold
  goblet cell proliferation, fold of basal, rat102: 1.0 fold
  goblet cell proliferation, fold of basal, rat103: 1.0 fold
[1]; 0.5 ug/ml
  goblet cell proliferation, Ave. fold: 1.0 fold
  goblet cell proliferation, fold of basal, rat101: 1.1 fold
  goblet cell proliferation, fold of basal, rat102: 1.0 fold
  goblet cell proliferation, fold of basal, rat103: 1.0 fold
[1]; 1.0 ug/ml
  goblet cell proliferation, Ave. fold: 1.0 fold
  goblet cell proliferation, fold of basal, rat101: 1.1 fold
  goblet cell proliferation, fold of basal, rat102: 1.0 fold
  goblet cell proliferation, fold of basal, rat103: 1.0 fold
[1]; 2.0 ug/ml
  goblet cell proliferation, Ave. fold: 1.2 fold
  goblet cell proliferation, fold of basal, rat101: 1.5 fold
  goblet cell proliferation, fold of basal, rat102: 1.2 fold
  goblet cell proliferation, fold of basal, rat103: 1.1 fold
[1]; 5.0 ug/ml
  goblet cell proliferation, Ave. fold: 1.3 fold
  goblet cell proliferation, fold of basal, rat101: 1.4 fold
  goblet cell proliferation, fold of basal, rat102: 1.4 fold
  goblet cell proliferation, fold of basal, rat103: 1.2 fold

## CC(C)NCC(O)c1ccc(O)c(O)c1 (stereo not shown) [Isoproterenol, reference compound]
[1]; 10^−7 to 10^−3 M, likely due to interference with the assay
  effect on goblet cell proliferation: did not increase proliferation

## CCCC(=O)Nc1ncnc2c1ncn2[C@@H]1O[C@@H]2COP(=O)(O)O[C@H]2[C@H]1OC(=O)CCC [butyryl cAMP, dibutyryl cAMP, reference compound]
[1]; 10^−6 to 10^−3 M
  effect on goblet cell proliferation: did not increase proliferation at the concentrations tested

## PDGF
[1]; 5 to 25 ng/ml
  increase in goblet cell proliferation compared to no additions: 2 fold

## bFGF: Basic fibroblast growth factor, also referred to as FGF-2
[2]
  proliferation (Ki-67 positive goblet cells as percentage of total cells): 70%
[1]; 10-20 ng/ml, similar to PDGF (2-fold)
  effect on goblet cell proliferation: had similar effects

## CCCC(=O)O[C@@H]1[C@@H](C)[C@@]2(O)[C@@H](C=C(CO)C[C@]3(O)C(=O)C(C)=C[C@@H]23)[C@@H]2C(C)(C)[C@]12OC(=O)CCC [phorbol dibutyrate β isoform, phorbol dibutyrate, reference compound]
[1]; concentrations not greater than 10^−7 M, solubilized in DMSO
  effect on goblet cell proliferation: Neither isoform increased proliferation except at high concentrations
[1]; high concentrations, greater than 10^−7 M, effect not mediated by PKC
  effect on goblet cell proliferation: both isoforms increased proliferation

## transforming growth factor (TGF)α: EGF family growth factor that activates ErbB-1 receptors
[1]
  stimulation of goblet cell proliferation compared to control (no additions): about two

## EGF: epidermal growth factor, activates ErbB-1 receptors
[2]
  proliferation (Ki-67 positive goblet cells as percentage of total cells): 40%
[1]
  stimulation of goblet cell proliferation compared to control (no additions): about two

## C[N+](C)(C)CCOC(N)=O [Carbachol, reference compound]
[1]; 10^−6 to 10^−3 M
  effect on goblet cell proliferation: did not increase cell proliferation at any concentration

B1: KGF: keratinocyte growth factor (protein, UniProt P21781 32-194, looked up)
Fibroblast growth factor 7: CNDMTPEQMATNVNCSSPERHTRSYDYMEGGDIRVRRLFCRTQWYLRIDKRGKVKGTQEMKNNYNIMEIRTVAVGIVAIKGVESEFYLAMNKEGKLYAKKECNEDCNFKELILENHYNTYASAKWTHNGGEMFVALNQKGIPVRGKKTKKEQKTAHFLPMAIT
[1]; 10-30 ng/ml
  effect on goblet cell proliferation: Neither hepatocyte growth factor (HGF, 15-40 ng/ml) nor keratinocyte growth factor (KGF, 10-30 ng/ml), at any of the concentrations used, stimulated cell proliferation

B2: HB-EGF: Heparin binding-EGF, binds to ErbB-1 and ErbB-3 receptors (protein, UniProt Q99075 63-148, looked up)
Heparin-binding EGF-like …: DLQEADLDLLRVTLSSKPQALATPNKEEHGKRKKKGKGLGKKRDPCLRKYKDFCIHGECKYVKELRAPSCICHPGYHGERCHGLSL
[1]
  stimulation of goblet cell proliferation compared to control (no additions): 2 fold

From US20070185014A1, “Methods and compositions for modulating conjunctival goblet cells” (The Schepens Eye Research Institute, Inc., priority 2006, published 2007)
